Key:
[1] = test system: TNFα production in LPS-stimulated human monocytes; assay: Cot Monocyte TNFα Cell Based Assay; details: Homo sapiens, Monocyte, TNFα in LPS-stimulated human monocytes; read-out: EC50 TNF
Procedure, shortened: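 TNFα release quantified by two-antibody TR-FRET, normalised to unstimulated (0%) and LPS-stimulated (100%) wells. Cells got a 1 h compound exposure at 37° C in 0.5% DMSO before 4 h challenge with 50 pg/ml LPS, at 5,000 cells/well.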

[2] = molecular target: T1, human Cot catalytic domain (30-397 amino acids) (Homo sapiens, UniProt P41279); assay: High Throughput Cot Biochemical Assay (KinEASE TR-FRET); details: Cot biochemical HTRF (KinEASE TR-FRET) assay; read-out: IC50 HTRF
T1 construct: Purified recombinant human Cot catalytic domain (30-397 amino acids) was purchased from Cama Biosciences; purchased Cama Biosciences (so in the source)
T1 sequence (P41279 30-397): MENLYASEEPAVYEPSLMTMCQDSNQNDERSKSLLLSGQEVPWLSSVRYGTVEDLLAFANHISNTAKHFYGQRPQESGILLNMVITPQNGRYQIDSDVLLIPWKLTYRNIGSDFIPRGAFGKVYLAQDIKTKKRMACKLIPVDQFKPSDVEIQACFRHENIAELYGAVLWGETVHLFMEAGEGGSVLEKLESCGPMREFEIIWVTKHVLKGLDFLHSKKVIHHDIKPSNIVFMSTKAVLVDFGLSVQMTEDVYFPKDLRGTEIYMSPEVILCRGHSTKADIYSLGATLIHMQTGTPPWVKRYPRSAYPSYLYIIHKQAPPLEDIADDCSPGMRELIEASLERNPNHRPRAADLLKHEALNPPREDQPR
Procedure, shortened: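 TR-FRET (KinEASE) read-out: Eu-labelled phospho-specific antibody binds XL665-tagged STK3 peptide (1 μM) phosphorylated by 5 nM human Cot kinase domain (residues 30-397). Reaction at 400 μM ATP, pH 7.0 MOPS buffer with 10 mM MgOAc, 1 mM DTT and 0.1% DMSO.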

Compound | EC50 [1] [nM] | IC50 [2] [nM]
CC(C)(C)N1CCC(n2cc([C@@H](Nc3cc(Cl)c4ncc(C#N)c(NC5CC6CCC5C6)c4c3)c3ccccc3)nn2)CC1 (stereo partly drawn) [Example 596, 4-(bicyclo[2.2.1]heptan-2-ylamino)-6-(((S)-(1-(1-(tert-butyl)piperidin-4-yl)-1H-1,2,3-triazol-4-yl)(phenyl)methyl)amino)-8-chloroquinoline-3-carbonitrile] | 3050 | 33
CC(C)(C)N1CCC(n2cc(C(Nc3cc(Cl)c4ncc(C#N)c(NC5CCC(O)CC5)c4c3)c3ccccc3)nn2)CC1 [Example 597, 6-(((S)-(1-(1-(tert-butyl)piperidin-4-yl)-1H-1,2,3-triazol-4-yl)(phenyl)methyl)amino)-8-chloro-4-(((1r,4S)-4-hydroxycyclohexyl)amino) quinoline-3-carbonitrile] | 3180 | 189
CC(C)(C)N1CCC(n2cc([C@@H](Nc3cc(Cl)c4ncc(C#N)c(NCC5CCCCC5)c4c3)c3ccccc3)nn2)CC1 [Example 602, (S)-6-(((1-(1-(tert-butyl)piperidin-4-yl)-1H-1,2,3-triazol-4-yl)(phenyl)methyl)amino)-8-chloro-4-chloro-4-((cyclohexylmethyl)amino) quinoline-3-carbonitrile] | 3050 | 77
CC(C)(C)N1CCC(n2cc([C@@H](Nc3cc(Cl)c4ncc(C#N)c(NN5CCCCCC5)c4c3)c3ccccc3)nn2)CC1 [Example 604, (S)-4-(azepan-1-ylamino)-6-(((1-(1-(tert-butyl)piperidin-4-yl)-1H-1,2,3-triazol-4-yl)(phenyl)methyl)amino)-8-chloroquinoline-3-carbonitrile] | 3040 | 156

Stronger by EC50 [1], values ahead:

EC50 [1] [nM] | IC50 [2] [nM] | Compound
418 | 4 | CC[C@@H](Nc1c(C#N)cnc2c(Cl)cc(N[C@@H](c3cccc(C(=O)N(C)C)c3)c3c[nH]nn3)cc12)c1ccccc1 [Example 598, 3-((S)-((8-chloro-3-cyano-4-(((R)-1-phenylpropyl)amino)quinolin-6-yl)amino)(1H-1,2,3-triazol-4-yl)methyl)-N,N-dimethylbenzamide]
134 | 3 | CC[C@@H](Nc1c(C#N)cnc2c(Cl)cc(N[C@@H](c3cccc(C(=O)N(C)C)c3)c3cn(C(C)C)nn3)cc12)c1ccccc1 [Example 599, 3-((S)-((8-chloro-3-cyano-4-(((R)-1-phenylpropyl)amino)quinolin-6-yl)amino)(1-isopropyl-1H-1,2,3-triazol-4-yl)methyl)-N,N-dimethylbenzamide]
78 | 2 | CC[C@@H](Nc1c(C#N)cnc2c(Cl)cc(N[C@@H](c3cccc(C(=O)N(C)C)c3)c3cn(C4CCN(C(C)(C)C)CC4)nn3)cc12)c1ccccc1 [Example 600, 3-((S)-(1-(1-(tert-butyl)piperidin-4-yl)-1H-1,2,3-triazol-4-yl)((8-chloro-3-cyano-4-(((R)-1-phenylpropyl)amino)quinolin-6-yl)amino)methyl)-N,N-dimethylbenzamide]
2060 | 64 | CC(C)(C)N1CCC(n2cc([C@@H](Nc3cc(Cl)c4ncc(C#N)c(NCC5CCOCC5)c4c3)c3ccccc3)nn2)CC1 [Example 601, (S)-6-(((1-(1-(tert-butyl)piperidin-4-yl)-1H-1,2,3-triazol-4-yl)(phenyl)methyl)amino)-8-chloro-4-(((tetrahydro-2H-pyran-4-yl)methyl)amino)quinoline-3-carbonitrile]
561 | 61 | CC(C)(C)N1CCC(n2cc([C@@H](Nc3cc(Cl)c4ncc(C#N)c(NN5CCCCC5)c4c3)c3ccccc3)nn2)CC1 [Example 603, (S)-6-(((1-(1-(tert-butyl)piperidin-4-yl)-1H-1,2,3-triazol-4-yl)(phenyl)methyl)amino)-8-chloro-4-(piperidin-1-ylamino)quinoline-3-carbonitrile]
